In patent US20190336598A1, “METHODS FOR MODULATING INFLAMMASOME ACTIVITY AND INFLAMMATION IN THE LUNG” (UNIVERSITY OF MIAMI, priority 2016, published 2019):
“Also recorded” adds a separate entry of the source.

Key:
Type in all cases: in vivo, C57-BL6 mice
[1] = test system: lungs of animals delivered EV from injured mice (ALI); assay: Histology (H&E) and acute lung injury scoring after adoptive transfer of EV from TBI mice and treatment; conditions: Enoxaparin 3 mg/kg or IC 100 5 mg/kg one hour after EV from TBI mice; for neutrophil infiltration into alveolar and interstitial space (H&E stained lung sections, FIG. 9A-D) / septal thickening (H&E stained lung sections, FIG. 9A-D): lungs 24 hours after injection; for ALI score (FIG. 9E): vs untreated group, score 0 (no injury) to 1 (severe injury), p=<0.0001
Method: (§1) Serum-derived EV from C57BL-6 TBI and sham mice were injected into naïve C57BL-6 mice through the jugular vein at a dose of 1.0×10^10 particles per gram/body weight^48. Particle count was measured by Nanosight Tracking analysis and samples were diluted accordingly. Prior to surgery animals were anesthetized with ketamine and […]. A 1-2 cm incision was made between the jaw and the clavicle. The jugular vein was elevated and tied, followed by catheter placement. Serum-derived EV were transferred and lung and brain tissues were collected 24 hours after injection for analysis (n=5).
(§2) Serum-derived EV from TBI mice were injected into naïve C57-BL6 mice through a jugular vein injection. One hour later, Enoxaparin (3 mg/kg) (n=4) and Anti-ASC (5 mg/kg) (n=4) were administered to recipient animals. The following groups were used: 1) the naïve group received no treatment, 2) the sham saline group was used as a negative control and underwent jugular vein injection of only saline, 3) the untreated group received EV from TBI mice without any treatment and was used as a positive control, 4) the ENOX group received EV from TBI mice and Enoxaparin, and 5) the Anti-ASC group received EV from TBI mice and Anti-ASC. The order of treatment was randomized. Lung and brain tissues were collected 24 hours after injection for analysis. It should be noted that the anti-ASC antibody used in the treatment experiments was a humanized monoclonal antibody against ASC and recognizes murine, human and swine ASC.
Lung tissue sections were stained by a standard hematoxylin and eosin method for histology, morphometry and ALI scoring. Lung sections were scored by a blinded pathologist using the Lung Injury Scoring System from the American Thoracic Society Workshop Report (17). Twenty random high power fields were chosen for scoring. Criteria for ALI scoring was based on number of neutrophils in the alveolar space, interstitial space, hyaline membranes, proteinaceous debris filling the airspaces and alveolar septal thickening. Based on these criteria a score between 0 (no injury) and 1 (severe injury) was given.

[2] = test system: inflammasome proteins (caspase-1, ASC, IL-1β, AIM2, HMGB1) in lungs; assay: Immunoblot of inflammasome proteins in lungs after adoptive transfer of EV from TBI mice and treatment; conditions: vs untreated positive control; Enoxaparin 3 mg/kg or IC 100 5 mg/kg one hour after EV from TBI mice; lungs collected 24 hours after injection; p=<0.0001
Method: Lung and brain tissue samples were snap frozen in liquid nitrogen and stored in −80° C. 2-mm sections of right lower lung and right cortical tissue were homogenized in extraction buffer containing protease and phosphatase inhibitor cocktail (Sigma, St Louis, Mo., USA) and resolved in 4-20% Tris-TGX Criterion precasted gels (Bio-Rad, Hercules, Calif., USA) as described in de Rivero Vaccari et al. 2015 (13) using antibodies to caspase-1 (Novus Biologicals), ASC (Santa Cruz), IL-1 β (Cell Signaling), IL-18 (Abcam) AIM2 (Santa Cruz) and HMGB1 (Millipore). Quantification of band density was performed using Image Lab and all data were normalized to β-actin.
as §1, §2

[3] = test system: inflammasome proteins (caspase-1, ASC, IL-1β, AIM2, HMGB1) in lungs; assay: as above; conditions: vs untreated positive control animals; Enoxaparin 3 mg/kg, IC 100 5 mg/kg; N=4 per group

Molecule	neutrophil infiltration into alveolar and interstitial space (H&E stained lung sections, FIG. 9A-D) [1]	septal thickening (H&E stained lung sections, FIG. 9A-D) [1]	ALI score (FIG. 9E) [1]	AIM2 in lungs (FIG. 8E) [2]	ASC in lungs (FIG. 8C) [2]	Caspase-1 in lungs (FIG. 8B) [2]	HMGB1 in lungs (FIG. 8F) [2]	IL-1β in lungs (FIG. 8D) [2]	IL-1β in lungs (FIG. 8D) [3]
Enoxaparin	significantly less	no signs	significantly lower; also recorded: significantly decreased	significantly reduced	significantly reduced	significantly reduced	significantly reduced	significantly reduced	reduced
IC 100: humanized monoclonal antibody against ASC; recognizes murine, human and swine ASC (antibody, V domains shown) VH: QVTLKESGPALVKPTQTLTLTCSFSGFSLSTSGMGVSWIRQPAGKGLEWLAHIYWDDDKRYNPSLKSRLTISKDSSKNQVVLTMTNMDPVDTATYSCARSTPIVANAMDYWGQGTLVTVSS VL: DIVMTQSPDSLAVSLGERATINCKASQSVDYDGDSYMNWYQQKPGQPPKLLIYAASNLESGIPARFSGSGSGTDFTLTISSLQPEDVATYYCQQSNEDPYTFGQGTKLEIK	significantly less	no signs	significantly lower; also recorded: significantly decreased	significantly reduced	significantly reduced	significantly reduced	significantly reduced	significantly reduced	reduced
